Assay [1] relates to Microdochium nivale. Put plainly: Experiment 2: poison plate assay (growth inhibition, MIC). The assay is classed as cell-based. To be noted: as Experiment 1, imazalil 10-2.37 ppm, alkoxylated amine 40-9.49 ppm. The procedure: Activity against growth of Microdochium nivale was determined with the poison plate assay. A calculated amount of a stock solution (containing either imazalil or an alkoxylated amine of formula (I) dissolved in dimethyl sulfoxide was pipetted into multiwell plates. Culture medium (potato dextrose agar) was added aseptically and uniform distribution was obtained by shaking. The plates were inoculated with the test fungus Microdochium nivale (suspension of 6.10^5 spores/ml). The multi-well plates were kept in the dark at 21° C. and a relative humidity of 75%. The lowest concentration of each test compound or mixture of test compounds sufficient to inhibit visible growth was taken as the minimum inhibitory concentration (MIC). The MIC were taken as end points of activity. End points for the combinations of imazalil with an alkoxylated amine of formula (I) were then compared with the end points for these test compound when employed individually. A similar poison plate assay was run as described in Experiment 1, but the final concentrations of imazalil now ranged from 10, 7.50, 5.63, 4.22, 3.16 to 2.37 ppm. The final concentrations of alkoxylated amine of formula (I) now ranged from 40, 30, 22.50, 16.88, 12.66 to 9.49 ppm.

Assay [2] deals with Microdochium nivale. Put plainly: Experiment 1: poison plate assay (growth inhibition, MIC). Format: cell-based. To be noted: potato dextrose agar, 21° C., dark, 75% relative humidity, imazalil 6.66-1.58 ppm, alkoxylated amine 26.66-6.33 ppm, combinations imazalil:amine 1 to 4. The procedure:
Activity against growth of Microdochium nivale was determined with the poison plate assay. A calculated amount of a stock solution (containing either imazalil or an alkoxylated amine of formula (I) dissolved in dimethyl sulfoxide was pipetted into multiwell plates. Culture medium (potato dextrose agar) was added aseptically and uniform distribution was obtained by shaking. The plates were inoculated with the test fungus Microdochium nivale (suspension of 6.10^5 spores/ml). The multi-well plates were kept in the dark at 21° C. and a relative humidity of 75%. The stock solution comprising imazalil at a concentration of 2000 ppm was pipetted in the multiwell plates in order to reach a final test concentration in six decreasing steps ranging from 6.66, 5.00, 3.75, 2.81, 2.11 and 1.58 ppm. The stock solution comprising an alkoxylated amine of formula (I) at a concentration of 8000 ppm was pipetted in the multiwell plates in order to reach a final test concentration in six decreasing steps ranging from 26.66, 20.00, 15.00, 11.25, 8.44, and 6.33 ppm wherein the ratio of imazalil to alkoxylated amine of formula (I) is 1 to 4 in each of the wells containing both imazalil and alkoxylated amine (I). The lowest concentration of each test compound or mixture of test compounds sufficient to inhibit visible growth was taken as the minimum inhibitory concentration (MIC). The MIC were taken as end points of activity. End points for the combinations of imazalil with an alkoxylated amine of formula (I) were then compared with the end points for these test compound when employed individually.

Setting [3] is: Microdochium nivale, read-out: MIC-values (lowest concentration sufficient to inhibit visible growth).

This note sets out measurements from patent US20110196006A1, “IMAZALIL COMPOSITIONS COMPRISING ALKOXYLATED AMINES” (priority 2004, published 2011).

As for “N,N′,N′-tris(2-hydroxyethyl)-N-cocoalkyl-1,3-diaminopropane [ethoduomeen C13]”, the “MIC-values (lowest concentration sufficient to inhibit visible growth)” value in the assay with Microdochium nivale [1] is recorded as >40 ppm.
With “N,N′,N′-tris-(2-hydroxyethyl)-N-tallowalkyl-1,3-diaminopropane [ethoduomeen T13]”, the “MIC-values (lowest concentration sufficient to inhibit visible growth)” value in the assay with Microdochium nivale [2] was >26.7 ppm.
The same measure, in the same setting: the result for “bis-(2-hydroxyethyl)cocoalkylamine [ethomeen C12]” reads >26.7 ppm.
Consider `C=CCOC(Cn1ccnc1)c1ccc(Cl)cc1Cl` (centres unmarked) [imazalil], for which the MIC is 2.81 µg/mL with Microdochium nivale [2] (setting [3]) and 3.16 µg/mL in the assay with Microdochium nivale [1] (setting [3]).
